Measured values from patent US20210388260A1, “USE OF A SUBSTITUTED OR UNSUBSTITUTED POLYCYCLIC AROMATIC HYDROCARBON COMPOUND FOR HIGH-RESOLUTION MICROSCOPY” (Max-Planck-Gesellschaft zur Förderung der Wissenschaften e.V, priority 2018, published 2021).
≈ marks a conversion by molar mass, not a printed value.

Key:
[1] = Toxicity evaluation (Example 9)
Method: (§1) 3,4,5-Tris(hexaethylene glycol) substituted 6,14-dimesityldibenzo[hi,st]ovalene was prepared analogous to example 4 and evaluated concerning its toxicity.

[2] = type: physicochemical
Method: as §1

[3] = Absorption and emission spectra, molar extinction coefficient, fluorescence quantum yield; type: physicochemical; details: for width of absorption and emission spectra: spectra of FIGS. 3a-d, 4a-d; for fluorescence quantum yield / maximum absorption wavelength / molar extinction coefficient ε: in toluene (10^−5 mol/L); for molar extinction coefficient ε: at maximum absorption wavelength
Excerpt: The maximum absorption wavelength in toluene (10^−5 mol/L) was 611 nm (molar extinction coefficient ε=2.03×10^5 M^−1 cm^−1) with a high fluorescence quantum yield of 0.85.
The maximum absorption wavelength in toluene (10^−5 mol/L) was 609 nm (molar extinction coefficient c=2.83×10^5 M^−1 cm^−1) with a high fluorescence quantum yield of 0.85.
The maximum absorption wavelength in toluene (10^−5 mol/L) was 647 nm (molar extinction coefficient ε=61511 M^−1 cm^−1) with a fluorescence quantum yield of 0.67.
The maximum absorption wavelength in toluene (10^−5 mol/L) was 609 nm (molar extinction coefficient ε=3.85×10^5 M^−1 cm^−1) with a high fluorescence quantum yield of 0.89.

[4] = STED imaging, stability embedded in polystyrene and in air (Example 12); type: physicochemical; details: high STED beam power, 3D STED imaging of more than one hour
Method: Different measurements were performed with 6,14-dimesityldibenzo[hi,st]ovalene being embedded in a polystyrene matrix and with 6,14-dimesityldibenzo[hi,st]ovalene in air. A Leica SP8 microscopy was used for the microscopy with an excitation laser wavelength of 561 nm and depletion (STED) laser wavelength of 775 nm.
The prepared glass coverslips were taped to a slide and kept in dark at room temperature until use.
A 15-months old sample of 6,14-dimesityldibenzo[hi,st]ovalene embedded in polystyrene as well as a freshly prepared sample of 6,14-dimesityldibenzo[hi,st]ovalene embedded in polystyrene were analyzed by STED.
6,14-dimesityldibenzo[hi,st]ovalene powder was dispersed in toluene at room temperature to a concentration of 10^−5 mol/L and was then further diluted to the needed concentration of e.g. 10^−7 mol/L. A gridded glass coverslip (#1.5) purchased from Ibidi GmbH in Martinsried, Germany which have microscopic/nano-structures was cleaned by oxygen-plasma cleaner (250 W, 5 minutes). 8 μl 10^−7 mol/L solution were put on top of the micro/nano-structure sample. After a few minutes, when all of the toluene was volatilized completely, the prepared sample was put on the microscope for 3D STED imaging.
The STED was performed with the following microscopy settings of the Leica SP8 microscope: […]

[5] = Solubility in water; type: physicochemical; details: room temperature
Method: In accordance with the present invention, the solubility and particularly the solubility of the compound having the general formula (1) or the general formula (2) in water at 23° C. is measured as follows: 1 mg sample is weighed into an Erlenmeyer flask and is then mixed homogeneously with 4 ml of water with a spatula at 23° C. The remaining substance on the spatula is stripped off with a magnetic stirrer bar, which is then added to the Erlenmeyer flask. While stirring with a magnetic stirrer, water is added dropwise with a burette until the solution in the Erlenmeyer flask becomes clear at 23° C. After that, the solubility of compound in water is calculated by calculating the ratio of weighed compound divided by the volume of added water and then by recalculating this ratio to 1 l of water.

[6] = test system: living cells; assay: Cytotoxicity test in living cells (Example 13, FIG. 8); type: cell-based; details: concentration of 1 μM
Method: (§2) More specifically, the cytotoxicity of DBOV-Mes-OTEG was tested in living cells. […] Moreover, the uptake of DBOV-Mes-OTEG into living cells was investigated by imaging 21 hours with low laser intensity at the spinning disk confocal microscopy (Visitron).

[7] = test system: living cells; assay: Uptake into living cells, spinning disk confocal microscopy; type: cell-based
Method: as §2

[8] = test system: fixed cells; assay: Blinking-mode imaging of fixed cell samples in PBS without special imaging buffer; type: cell-based
Excerpt: After the aforementioned live cell imaging, the samples were fixed and imaged in phosphate-buffered saline (PBS) without special imaging buffer.

Compound | width of absorption and emission spectra [3] | fluorescence quantum yield [3] | maximum absorption wavelength [3] [nm] | molar extinction coefficient ε [3] [M⁻¹ cm⁻¹] | other results
3,4,5-Tris(hexaethylene glycol) substituted 6,14-dimesityldibenzo[hi,st]ovalene | – | – | – | – | concentration up to which the compound is non-toxic [1]: ≤ 5 µM; solubility in DMSO [2]: good solubility
6,14-diphenyldibenzo[hi,st]ovalene [Example 7] | narrow absorption spectrum as well as a narrow emission spectrum | – | – | – | –
Cc1cc(C)c(-c2c3cccc4c5ccc6ccc7c(-c8c(C)cc(C)cc8C)c8cccc9c%10ccc%11ccc2c2c%11c%10c%10c(c89)c7c6c5c%10c2c34)c(C)c1 [DBOV-Mes, 6,14-dimesityldibenzo[hi,st]ovalene] | – | – | – | – | stability and brightness under STED beam [4]: very stable and still very bright
CCCCCCCCCCCCc1c2cccc3c4ccc5ccc6c(CCCCCCCCCCCC)c7cccc8c9ccc%10ccc1c1c%10c9c9c(c78)c6c5c4c9c1c23 [Example 1, 6,14-didodecyldibenzo[hi,st]ovalene] | – | 0.85 | 611 | 203000 | melting point: > 400 °C
Cc1cccc(C)c1-c1c2cccc3c4ccc5ccc6c(-c7c(C)cccc7C)c7cccc8c9ccc%10ccc1c1c%10c9c9c(c78)c6c5c4c9c1c23 [Example 2, 6,14-bis(dimethylphenyl)dibenzo[hi,st]ovalene] | narrow absorption spectrum as well as a narrow emission spectrum | 0.85 | 609 | 283000 | –
COCCOCCOCCOCCOc1cc(-c2ccc3cc4cc5c(-c6c(C)cc(C)cc6C)cc6cc7c(-c8cc(OCCOCCOCCOCCOC)c(OCCOCCOCCOCCOC)c(OCCOCCOCCOCCOC)c8)ccc8cc9cc%10c(-c%11c(C)cc(C)cc%11C)cc%11cc2c3c2c%11c%10c3c9c(c87)c6c5c3c42)cc(OCCOCCOCCOCCOC)c1OCCOCCOCCOCCOC [Example 4, 3,11-bis(3,4,5-tris(2,5,8,11-tetraoxatridecan-13-yloxy)phenyl)-6,14-dimesityldibenzo[hi,st]ovalene] | – | – | – | – | solubility in water [5]: 100 µg/mL (≈ 47.7 µM); toxicity to cells [6]: does not show any significant toxicity; location of compound in living cells ([7]; after 21 hours incubation): in the nucleus and nuclear membrane; location of compound in living cells ([7]; at the beginning of the incubation): taken into the cytoplasm; decrease of blinking signals ([8]; continuous exposure, high laser intensity 10 kW/cm^2 for 90 min): no significant decrease; blinking signals at low laser intensity ([8]; low laser intensity of 240 W/cm^2): blinking signals could also be imaged
CC(C)[Si](C#Cc1c2cccc3c4ccc5ccc6c(C#C[Si](C(C)C)(C(C)C)C(C)C)c7cccc8c9ccc%10ccc1c1c%10c9c9c(c78)c6c5c4c9c1c23)(C(C)C)C(C)C [Example 5, 6,14-di(triisopropylsilylethynyl) dibenzo[hi,st]ovalene] | narrow absorption spectrum as well as a narrow emission spectrum | 0.67 | 647 | 61511 | –
CCCCCCCCCCCCOc1cc(-c2c3cccc4c5ccc6ccc7c(-c8cc(OCCCCCCCCCCCC)c(OCCCCCCCCCCCC)c(OCCCCCCCCCCCC)c8)c8cccc9c%10ccc%11ccc2c2c%11c%10c%10c(c89)c7c6c5c%10c2c34)cc(OCCCCCCCCCCCC)c1OCCCCCCCCCCCC [Example 6, 6,14-bis[3,4,5-tris(dodecoxyl)-phenyl]dibenzo[hi,st]ovalene] | – | 0.89 | 609 | 385000 | –
CCCCCCn1c(=O)c2c3ccc4c(-c5c(C)cc(C)cc5C)c5ccc6cc7c8c(=O)n(CCCCCC)c(=O)c8c8ccc9c(-c%10c(C)cc(C)cc%10C)c%10ccc%11cc(c2c1=O)c1c3c4c2c5c6c3c7c8c9c4c%10c%11c1c2c43 [Example 8, N-hexyl fumaric acid imide group substituted 6,14-dimesityldibenzo[hi,st]ovalene] | narrow absorption spectrum as well as a narrow emission spectrum | – | – | – | –
